Read-outs that look alike come from different tables or passages of the source. Marks after values point to notes of the source that are not given here.

Data on ten compounds can be found in PMC8624998, “Synthesis and Antiproliferative Evaluation of 3-Chloroazetidin-2-ones with Antimitotic Activity: Heterocyclic Bridged Analogues of Combretastatin A-4” (Pharmaceuticals, 2021).

Test [1] deals with MCF-7 cells. Nature of the test: Lactate dehydrogenase (LDH) assay for cytotoxicity. Format: cell-based. To be noted: Homo sapiens, MCF7; MCF-7, compound concentration 10 μM, 24 h; read-out: Lactate Dehydrogenase assay: % cell lysis (cell death). As to the method: The toxicity and selectivity of 10n towards normal cells was investigated in the non-tumourigenic cell line HEK-293T (normal human epithelial embryonic kidney cells). […] The cytotoxic effect of selected 3-chloro-β-lactams 10e, 10f, 10i, 10n and 3,3-dichloro-β-lactams 11e and 11n in MCF-7 cells was initially determined using the lactate dehydrogenase (LDH) assay.
The cytotoxicity of selected compounds was determined using the CytoTox 96 non-radioactive cytotoxicity assay (Promega Corporation, Madison, WI, USA). Briefly, MCF-7 cells were seeded in a 96-well plate (200 μL per well), at a density of 2.5 × 10^4 cells/mL, and incubated for 24 h. The cells were then treated with selected β-lactam compounds as described above for the cell viability assay. […] Supernatant (50 μL) was removed from each well to a 96-well plate. Reconstituted ‘CytoTox 96® Reagent (50 μL) was added to each well and the plate was placed in the dark at 20 °C for 30 min. ‘Stop solution’ (50 μL) was added to each well and the samples were analysed at 490 nm using a Dynatech MR5000 plate reader. The percentage cell death at 10 μM was calculated.

Test [2] concerns MCF-7 cells. The following applies: MCF-7, 72 h, previously reported compounds, cited from earlier work.
The subject of the next test is MDA-MB-231 cells. Nature of the test: Cell viability assay, antiproliferative activity. The format is cell-based. To be noted: Homo sapiens; MDA-MB-231, 72 h; 10e and 11n results from NCI; read-out: Antiproliferative Activity IC50 MDA-MB-231, 72 h. From the text: Selected β-lactam compounds were next evaluated in the triple negative cell line MDA-MB-231 (Table 4). […] These cancers are difficult to treat since they are generally not responsive to hormone therapies such as the selective oestrogen receptor modulator (SERM) tamoxifen, or aromatase inhibitors such as anastrozole, or to the monoclonal antibody Herceptin, which targets the HER2 receptor. There are fewer treatment options available for TNBC compared with ER+, PR+ and HER2+ breast cancers and the prognosis is poorer. […]. The human breast carcinoma cell line MCF-7 was purchased from the European Collection of Animal Cell Cultures (ECACC). Triple negative breast cancer Hs578T cells and its invasive variant Hs578Ts(i)8 were a kind gift from Dr. Susan McDonnell, School of Chemical and Bioprocess Engineering, University College Dublin. U266 cells were a gift from Dr. Tony McElligott, School of Medicine, St James’s Hospital, Trinity College Dublin. HT-29 cells were purchased from the European Collection of Cell Cultures (originating from a human adenocarcinoma of the colon). The human breast carcinoma cell line MDA-MB-231 and the HL-60 cells derived from a patient with acute myeloid leukaemia were both obtained from ECACC (Salisbury, UK). The SW-480 cells were a kind gift from Dr. Brian Flood, School of Biochemistry and Immunology, Trinity College Dublin. HEK-293T (normal epithelial embryonic kidney cells) were cultured in Dulbecco’s Modified Eagle’s Medium (DMEM) with GlutaMAXTM-I in the absence of non-essential amino acids. Human breast cancer MCF-7 cells and multiple myeloma U266 cells were cultured in Minimum Essential Media (MEM) with GlutaMAX™-I, supplemented with 1% (v/v) non-essential amino acids, 10% 2(v/v) foetal bovine serum (FBS) and 1% (v/v) penicillin/streptomycin 5000 U/mL. MDA-MB-231 cells were maintained in DMEM supplemented with 10% (v/v) foetal bovine serum, 2 mM L-glutamine and 100 μg/mL penicillin/streptomycin (complete medium). Colon cancer HT-29 and SW-480 and triple negative breast cancer Hs578T and its invasive variant Hs578T8i were cultured in DMEM with GlutaMAX™-I, with the same supplement in the absence of non-essential amino acids. Leukaemia HL-60 cancer cells were cultured in Roswell Park Memorial Institute Media (RPMI-1640) with GlutaMAX™-I, supplemented with 10% FCS media, and 100 μg/mL penicillin/streptomycin as above. Cell numbers were monitored using a haemocytometer. Cell culture flasks were incubated in a humidified incubator (5% CO2/95% air) at 37 °C. All cell lines were sub-cultured three times per week with trypsinisation using TrypLE Express (1X) required for adherent cell lines.
(§1) . All stock solutions and serial dilution in ethanol/DMSO were stored at -20 °C. All cells were seeded at a density of 2.5 × 10^4 cells/mL in a 96-well plate (200 μL per well). The cells were incubated in a […] atmosphere at 37 °C for 24 h, then treated with test compound (2 μL of stock solutions per 200-microlitre well) in ethanol to obtain a concentration range of 1 nM–200 μM for the study. The plates were then re-incubated for a further 72 h. Control wells contained an equivalent volume of the vehicle ethanol or DMSO (1% v/v). MTT cell viability assay: The culture medium was removed, and the cells were washed with phosphate buffered saline (PBS, […]). MTT (dissolved in PBS, […]) was added to obtain a final concentration of MTT (1 mg/mL). Cells were incubated at 37 °C for 3 h in the dark. Solubilisation was commenced by the addition of DMSO ([…]) and the cells were maintained at 20 °C in the dark for 20 min before reading the absorbance to ensure complete colour diffusion. The absorbance value of control cells (no added compound) was set to 100% cell viability and absorbance versus cell density per well was determined to assess cell viability using Graph-Pad Prism software. […]

In test [3] the test system is MCF-7 cells. Nature of the test: Cell viability assay (MTT/AlamarBlue), antiproliferative activity. The format is cell-based, human. To be noted: MCF-7, 72 h; for IC50: read-out: IC50 (MCF-7, 72 h).
Source text: […]. The introduction of the halogen substituent at C-3 was examined in an effort to investigate the effect on the activity of this substituent, and subsequently optimising the cytotoxic effects against MCF-7 human breast cancer cells.
(§2) The human breast carcinoma cell line MCF-7 was purchased from the European Collection of Animal Cell Cultures (ECACC). Triple negative breast cancer Hs578T cells and its invasive variant Hs578Ts(i)8 were a kind gift from Dr. Susan McDonnell, School of Chemical and Bioprocess Engineering, University College Dublin. U266 cells were a gift from Dr. Tony McElligott, School of Medicine, St James’s Hospital, Trinity College Dublin. HT-29 cells were purchased from the European Collection of Cell Cultures (originating from a human adenocarcinoma of the colon). The human breast carcinoma cell line MDA-MB-231 and the HL-60 cells derived from a patient with acute myeloid leukaemia were both obtained from ECACC (Salisbury, UK). The SW-480 cells were a kind gift from Dr. Brian Flood, School of Biochemistry and Immunology, Trinity College Dublin. HEK-293T (normal epithelial embryonic kidney cells) were cultured in Dulbecco’s Modified Eagle’s Medium (DMEM) with GlutaMAXTM-I in the absence of non-essential amino acids. Human breast cancer MCF-7 cells and multiple myeloma U266 cells were cultured in Minimum Essential Media (MEM) with GlutaMAX™-I, supplemented with 1% (v/v) non-essential amino acids, 10% 2(v/v) foetal bovine serum (FBS) and 1% (v/v) penicillin/streptomycin 5000 U/mL. MDA-MB-231 cells were maintained in DMEM supplemented with 10% (v/v) foetal bovine serum, 2 mM L-glutamine and 100 μg/mL penicillin/streptomycin (complete medium). Colon cancer HT-29 and SW-480 and triple negative breast cancer Hs578T and its invasive variant Hs578T8i were cultured in DMEM with GlutaMAX™-I, with the same supplement in the absence of non-essential amino acids. Leukaemia HL-60 cancer cells were cultured in Roswell Park Memorial Institute Media (RPMI-1640) with GlutaMAX™-I, supplemented with 10% FCS media, and 100 μg/mL penicillin/streptomycin as above. Cell numbers were monitored using a haemocytometer. Cell culture flasks were incubated in a humidified incubator (5% CO2/95% air) at 37 °C. All cell lines were sub-cultured three times per week with trypsinisation using TrypLE Express (1X) required for adherent cell lines.
as §1, with “software. AlamarBlue cell viability assay: Cells were seeded in 96-well plates (e.g., MCF-7, 5 × 10^3 cells/well) and (HT-29 cells, 1 × 10^3 cells/well) and (HL-60 cells, 1 × 10^4 cells/well) with a total volume per well of 200 µL. After 24 h, cells were treated in triplicate with serial dilutions of CA-4 or β-lactam analogues (0.001–100 μM), medium alone or vehicle (1% ethanol (v/v)).” for “software.”
(In general: Alamar Blue is a resazurin reagent that responds to reducing activity.)

The next test deals with SW480 cells. Briefly: Cell viability assay, antiproliferative activity. Format: cell-based, human. To be noted: SW480, 10 μM. The procedure: […]. The corresponding values for 10e in these cell lines were 161 nM (HL-60), 55 nM (SW480) and 135 nM (HT-29). […] […]. SW480 colon cells expressed low levels of the UDP-glucuronosyltransferase (UGT) protein compared to expression levels in HT-29 cells. […] […].
as §2
as §1, with “software. AlamarBlue cell viability assay: Cells were seeded in 96-well plates (e.g., MCF-7, 5 × 10^3 cells/well) and (HT-29 cells, 1 × 10^3 cells/well) and (HL-60 cells, 1 × 10^4 cells/well) with a total volume per well of 200 µL. After 24 h, cells were treated in triplicate with serial dilutions of CA-4 or β-lactam analogues (0.001–100 μM), medium alone or vehicle (1% ethanol (v/v)).” for “software.”

As for `CCOc1ccc([C@H]2[C@H](Cl)C(=O)N2c2cc(OC)c(OC)c(OC)c2)cc1` (relative stereo) [Compound 10f], in the test with MCF-7 cells [1], the cytotoxicity at 10 µM came out at 4%. In addition, the IC50 was 130 ± 17 nM in the test with MCF-7 cells [2] (footnote g) and 78 ± 8 nM with MDA-MB-231 cells.

In the case of `COc1cc(N2C(=O)C(Cl)C2c2ccc(SC)cc2)cc(OC)c1OC` (centres unmarked) [Compound 10i], the cytotoxicity at 10 µM in the test with MCF-7 cells [1] was 3%. Moreover, the IC50 in the test with MCF-7 cells [2] (footnote g) is 73 ± 4 nM.

On to `COc1cc(N2C(=O)C(Cl)C2c2ccc3ccccc3c2)cc(OC)c1OC` (centres unmarked) [Compound 10k, 3-Chloro-1-(3,4,5-trimethoxyphenyl)-4-(naphthalen-2-yl)azetidin-2-one], for which the IC50 in the test on MCF-7 cells [3] (Homo sapiens, MCF7, 72 h) amounted to 200 nM; in the test with MCF-7 cells [3], 202 ± 15 nM; in the test with MDA-MB-231 cells, 205 ± 34 nM.

Consider `COc1ccc(C2C(Cl)C(=O)N2c2cc(OC)c(OC)c(OC)c2)cc1Cl` (centres unmarked) [Compound 10o], for which the IC50 in the test with MCF-7 cells [2] (footnote h) was 433 ± 50 nM.

With `COc1ccc(C2N(c3cc(OC)c(OC)c(OC)c3)C(=O)C2(Cl)Cl)cc1` (centres unmarked) [Compound 11e], in the test with MCF-7 cells [1], the cytotoxicity at 10 µM is 10%. Besides, the figures for the IC50 with MCF-7 cells [2] (footnote g) and in the test on MDA-MB-231 cells were 119 ± 12 nM and 297 ± 40 nM, respectively.

For the compound `CCOc1ccc([C@@H]2N(c3cc(OC)c(OC)c(OC)c3)C(=O)C2(Cl)Cl)cc1` [Compound 11f], the IC50 in the test on MCF-7 cells [2] (footnote g) was 164 ± 15 nM; with MDA-MB-231 cells, 389 ± 50 nM.

On to `COc1cc(N2C(=O)C(Cl)(Cl)C2c2ccc(SC)cc2)cc(OC)c1OC` (centres unmarked) [Compound 11i], for which the IC50 in the test on MCF-7 cells [2] (footnote g) was 291 ± 30 nM.

As to `COc1ccc(C2N(c3cc(OC)c(OC)c(OC)c3)C(=O)C2(Cl)Cl)cc1C` (centres unmarked) [Compound 11o], the IC50 in the test with MCF-7 cells [2] (footnote h) was 747 ± 60 nM.

In the case of `CCOc1ccc(C2C(Br)C(=O)N2c2cc(OC)c(OC)c(OC)c2)cc1` (centres unmarked) [Compound 16b, 3-Bromo-4-(4-ethoxyphenyl)-1-(3,4,5-trimethoxyphenyl)azetidin-2-one], the “SW480 inhibition of cell viability” value in the test with SW480 cells amounted to 50%. Further, the IC50 in the test with MCF-7 cells [3] (Homo sapiens, MCF7, 72 h) turned out to be 1140 ± 300 nM.

On to `COc1ccc(C2C(Br)C(=O)N2c2cc(OC)c(OC)c(OC)c2)cc1O` (centres unmarked) [Compound 16j, 3-Bromo-4-(3-hydroxy-4-methoxyphenyl)-1-(3,4,5-trimethoxyphenyl) azetidin-2-one], for which, in the test on SW480 cells, the “SW480 inhibition of cell viability” value turned out to be 48%. Further, in the test on MCF-7 cells [3] (10 μM), the “inhibition of cell viability at a concentration of 10 μM” value is listed as 40% (10 μM) ^c,i.

The term IC50 denotes the point on the concentration scale where inhibition reaches its midpoint.
